# In US6432426B1, “Non-staining topical iodine composition and method” (Symbollon Corporation, priority 1998, dated 2002):
# Assays:
# Assay type in all cases: in vivo
# Streptococcus agalactica = assay: Residual biocidal effect of skin associated iodine, repeated experiment; conditions: saturated molecular iodine solution (320 ppm)
# Human Skin [1] = assay: Diffusion of iodine from skin post application (DPD absorbance at 553 nm); conditions: average of three subjects
# Procedure: 2. Three samples from Example 1 were used to confirm that molecular iodine will penetrate into skin and remain in the skin for a prolonged time period.
# Application of the iodine solution onto skin was performed as described in Example 1 above with the exception that the contacted area was flushed with water for 15 seconds immediately after following contact between the iodine solution and skin. The method of Goftardi (J. Hosp. Infect., 1995, Vol 29, pages 9-18) were used to measure the amount of molecular iodine coming out of the skin. Briefly, 1 mL of a diethyl-p-phenylenediamine (DPD) solution was placed concentrically onto the exposed area of skin and left there for 30 seconds. This solution was then transferred to a 1 cm cuvette and the absorbance was read at 553 nm. Control values were obtained by contacting the DPD solution to an unexposed area on the forearm of each subject. Control values were subtracted from the experimental measurements. Iodine solutions containing 50 ppm, 150 ppm and 300 ppm of molecular iodine were used for this example. Two measurements were made (one measurement of each forearm) at each iodine concentration on all three subjects.
# [2] = system: Staphylococcus epidermidis; assay: Residual biocidal effect of skin associated iodine, repeated experiment; conditions: saturated molecular iodine solution (320 ppm)
# Human Skin [3] = assay: Coloration of human skin by a 30 second exposure (vial contact on forearm); hue by Pantone chips, intensity against Brown No. 3 dye; parameters: key to Coloration of human skin: N = no visible staining; L = light staining barely noticeable; S = a clearly visible coloration; conditions: for Coloration of human skin: 30 second exposure, lines = Subjects 1-3
# Text: 1. […] Elemental iodine was weighed on an analytical balance and dissolved in one liter of water that had been acidified with 2 drops of 0.1N hydrochloric acid. The concentration of molecular iodine in the water was confirmed by potentiometric analysis (Gottardi, W., 1983. Fresenius Z. Anal. Chem., Vol. 314, pages 582-585). Samples were also titrated with thiosulfate to determine that at least 95% of the theoretical yield of titratable iodine was in the form of molecular iodine as opposed to triiodide. The concentration of molecular iodine was varied from 25 ppm to 330 ppm.
# One dram vials (Kimble catalog #60931) were used to deliver 4 mL of the room temperature iodine solutions samples. The vials were placed on the forearm of a subject and then the forearm was inverted to initiate contact of the sample with the iodine solution. The contact area was a circle with a diameter of 1.3 cm. The samples were held on the arm for 30 seconds at room temperature. Three different subjects were used for this experiment. Immediately after the 30 second contact time the arms of the subjects were examined for stains; 10 minutes after the end of the contact time all subjects arms were examined for stains again..
# For the purposes of this application, two different parameters were used to characterize the color and intensity of the term stain. The hue of the color imparted to skin was characterized by using the Pantone Color Matching System (Pantone Color Specifier, Pantone Inc., Carlstadt, N.J.) which allows comparison with 1,012 defined colors on two types of paper. Stains from triiodide were matched to the Pantone color chip No. 152C. Short-lived coloration from molecular iodine were matched to the Pantone color chip 1375C.
# The intensity of any coloration on skin was characterized by applying an aqueous solution of known concentrations of a food dye, Brown No. 3 (Crompton & Knowles, Mahwah, N.J. —Code DP935159), for 10 seconds using the method described above for application of iodine. Brown No. 3 was applied to the skin at concentrations that ranged from 500 ppm to 30 ppm and the intensity of the color from Brown No. 3 was compared to the intensity of coloration from iodine compositions. For instance, the intensity of color 10 minutes after a 30 second contact with a 600 ppm aqueous triiodide solution was equivalent to the color from a 10 second exposure to a 250 ppm Brown No. 3 solution. In contrast, the intensity of color 10 minutes after a 30 second contact with a 300 ppm aqueous molecular iodine solution was equivalent to the color from a ten second exposure to a 30 ppm Brown No. 3 solution which is barely discernible.
compound,measurement,setting,value
"II [Molecular Iodine, molecular iodine]",Residual biocidal efficacy on skin,Streptococcus agalactica,Efficacy was also demonstrated
same,"Mean absorbance (DPD, 553 nm), iodine diffusing from skin","Human Skin [1]; 50 ppm I2, 3 minutes after application",0.06
same,"Mean absorbance (DPD, 553 nm), iodine diffusing from skin","Human Skin [1]; 50 ppm I2, 6 minutes after application",0.17
same,"Mean absorbance (DPD, 553 nm), iodine diffusing from skin","Human Skin [1]; 50 ppm I2, 20 minutes after application",0.19
same,"Mean absorbance (DPD, 553 nm), iodine diffusing from skin","Human Skin [1]; 50 ppm I2, 60 minutes after application",0.18
same,"Mean absorbance (DPD, 553 nm), iodine diffusing from skin","Human Skin [1]; 50 ppm I2, 90 minutes after application",0.13
same,"Mean absorbance (DPD, 553 nm), iodine diffusing from skin","Human Skin [1]; 50 ppm I2, 120 minutes after application",0.08
same,"Mean absorbance (DPD, 553 nm), iodine diffusing from skin","Human Skin [1]; 50 ppm I2, 240 minutes after application",0.06
same,"Mean absorbance (DPD, 553 nm), iodine diffusing from skin","Human Skin [1]; 50 ppm I2, 660 minutes after application",0.02
same,"Mean absorbance (DPD, 553 nm), iodine diffusing from skin","Human Skin [1]; 150 ppm I2, 3 minutes after application",0.32
same,"Mean absorbance (DPD, 553 nm), iodine diffusing from skin","Human Skin [1]; 150 ppm I2, 6 minutes after application",0.31
same,"Mean absorbance (DPD, 553 nm), iodine diffusing from skin","Human Skin [1]; 150 ppm I2, 20 minutes after application",0.48
same,"Mean absorbance (DPD, 553 nm), iodine diffusing from skin","Human Skin [1]; 150 ppm I2, 60 minutes after application",0.53
same,"Mean absorbance (DPD, 553 nm), iodine diffusing from skin","Human Skin [1]; 150 ppm I2, 90 minutes after application",0.50
same,"Mean absorbance (DPD, 553 nm), iodine diffusing from skin","Human Skin [1]; 150 ppm I2, 120 minutes after application",0.46
same,"Mean absorbance (DPD, 553 nm), iodine diffusing from skin","Human Skin [1]; 150 ppm I2, 240 minutes after application",0.36
same,"Mean absorbance (DPD, 553 nm), iodine diffusing from skin","Human Skin [1]; 150 ppm I2, 660 minutes after application",0.20
same,"Mean absorbance (DPD, 553 nm), iodine diffusing from skin","Human Skin [1]; 300 ppm I2, 3 minutes after application",0.78
same,"Mean absorbance (DPD, 553 nm), iodine diffusing from skin","Human Skin [1]; 300 ppm I2, 6 minutes after application",0.65
same,"Mean absorbance (DPD, 553 nm), iodine diffusing from skin","Human Skin [1]; 300 ppm I2, 20 minutes after application",1.11
same,"Mean absorbance (DPD, 553 nm), iodine diffusing from skin","Human Skin [1]; 300 ppm I2, 60 minutes after application",0.93
same,"Mean absorbance (DPD, 553 nm), iodine diffusing from skin","Human Skin [1]; 300 ppm I2, 90 minutes after application",0.77
same,"Mean absorbance (DPD, 553 nm), iodine diffusing from skin","Human Skin [1]; 300 ppm I2, 120 minutes after application",0.64
same,"Mean absorbance (DPD, 553 nm), iodine diffusing from skin","Human Skin [1]; 300 ppm I2, 240 minutes after application",0.57
same,"Mean absorbance (DPD, 553 nm), iodine diffusing from skin","Human Skin [1]; 300 ppm I2, 660 minutes after application",0.40
same,Residual biocidal efficacy on skin,[2],Efficacy was also demonstrated
same,Coloration of human skin,"Human Skin [3]; 25 ppm molecular iodine, 0 min post contact",N
same,Coloration of human skin,"Human Skin [3]; 25 ppm molecular iodine, 10 min post contact",N
same,Coloration of human skin,"Human Skin [3]; 50 ppm molecular iodine, 0 min post contact",N
same,Coloration of human skin,"Human Skin [3]; 50 ppm molecular iodine, 10 min post contact",N
same,Coloration of human skin,"Human Skin [3]; 100 ppm molecular iodine, 0 min post contact",N and L
same,Coloration of human skin,"Human Skin [3]; 100 ppm molecular iodine, 10 min post contact",N
same,Coloration of human skin,"Human Skin [3]; 200 ppm molecular iodine, 0 min post contact",S
same,Coloration of human skin,"Human Skin [3]; 200 ppm molecular iodine, 10 min post contact",N
same,Coloration of human skin,"Human Skin [3]; 300 ppm molecular iodine, 0 min post contact",S
same,Coloration of human skin,"Human Skin [3]; 300 ppm molecular iodine, 10 min post contact",N and L
same,"Intensity of color on skin, equivalent Brown No. 3 solution (ten second exposure)","Human Skin [3]; 10 minutes after a 30 second contact with a 300 ppm aqueous molecular iodine solution, barely discernible",30 ppm
same,"Hue of the color imparted to skin, matched Pantone color chip",Human Skin [3]; Pantone Color Matching System,1375C
